Data taken from patent publication US9982265B2, “Inhibition of Bruton's tyrosine kinase (Btk) in the lung to treat severe lung inflammation and lung injury” (BOARD OF REGENTS, THE UNIVERSITY OF TEXAS SYSTEM, priority 2014, dated 2018).

Columns and labels:
[1] = test system: ApoE−/− mice fed Western Diet and exposed to SHS; experiment: Second hand smoke-induced emphysema/COPD model, PicroSirius Red and Hart's Elastin lung staining; format: in vivo; conditions: i.v. twice a week for 4 weeks, FIG. 18, 19
From the text: Second Hand Smoke (SHS)-Induced COPD: Chronic exposure of mice to SHS induces abnormal pulmonary inflammation, airway remodeling and airspace enlargement due to destruction of alveolar walls which are characteristic of COPD (Pappas et al., supra). The present studies used both wild-type (WT) mice exposed to SHS and apolipoprotein E-(ApoE^−/−)-genetically deficient mice to study comorbidities of COPD. The targeted deletion of the apoE gene leads to severe hypercholesterolemia and spontaneous atherosclerosis. Lesions of ApoE^−/− mice resemble their human counterparts and develop over time from initial fatty streaks to complex lesions. (A high-fat, high-cholesterol diet can strongly accelerate the process.) Exposure of ApoE^−/− mice to SHS triggers characteristic decline of lung function that is seen in patients with COPD (Arunachalam, G. et al., supra). ApoE^−/− mice were fed a regular diet (control) and a high fat/cholesterol (1%) diet to shorten the time required for the development of atherosclerosis.
WT and ApoE^−/− diet groups were divided into equal subgroups: control and SHS. SHS groups were exposed to cigarette smoke for 4 h per day, 5 days a week, for up to 20 weeks. A Teague TE-10 microprocessor-controlled smoking machine was used to produce side stream mixed with a smaller amount of main stream smoke. […] TSP values were measured twice a week or as necessary. […]

[2] = test system: mice with anti-KC:KC IC ALI; experiment: anti-KC:KC IC model of ALI, Lung Injury Score; format: in vivo; conditions: Table 4; mice immunized with KC then given KC; score 0 to 2; means ± SD, 3 animals per group
Method: Anti-KC:KC immune complexes were prepared according to the protocol routinely used in our laboratory (28). Some mice received Btk specific siRNA intranasally. In other experiments the animals were treated i.n. with siRNA specific for Btk (see SEQ ID NOs:18-25) or MMP-9 (Invitrogen), both conjugated (T3™-MAX Conjugation Kit (Bioo Scientific Corporation, Austin, Tex.) to F(ab′)2 fragments of anti-mouse neutrophil antibody Ly-6G1A8). F(ab′)2 fragments alone or conjugated to control siRNA (SEQ ID NO's 26 and 27) (Invitrogen) served as controls of the treatment. Two or fourteen hours after i.n. administration of either immune complexes or saline, the animals were euthanized and samples collected for further evaluation. To study role of neutrophil FcγRIII receptors neutrophils were first depleted by i.p. injection of vinblastine (31) followed by adoptive transfer of cells deficient in FcγRIII receptors prepared as described below. […] Lung dysfunction was assessed by analysis of pulmonary histopathology.
Pulmonary Histopathology: Lungs were fixed in ExCellPlus (AMTS, Lodi, Calif.), embedded in paraffin, and sectioned at 5 μm. […] The images of stained sections were evaluated for the presence of alveolar exudate, infiltration of inflammatory cells, and interstitial thickening. Lung Injury Score (LIS) was assessed as described earlier (28). Most images were assessed at magnification of over 400×. […] At the minimum twenty sections from each group of mice were evaluated and 4 investigators participated in the analysis of 50 or more fields per group. According to recommendation of “An Official American Thoracic Society Workshop Report: Features and Measurements of Experimental Acute Lung Injury in Animals” (Am J Respir Cell Mol Biol 44 725-738, 2011) more than 20 high power fields were independently scored (as described above) and at least 50% of each field was occupied by lung alveoli. […]

## C=CC(=O)N1CCC[C@@H](n2nc(-c3ccc(Oc4ccccc4)cc3)c3c(N)ncnc32)C1 [PCI-32765, 1-[(3R)-3-[4-amino-3-(4-phenoxyphenyl)-pyrazolo[3,4-d]pyrimidin-1-yl]piperidin-1-yl]prop-2-en-1-one]
[1]
  effect on symptoms of emphysema/COPD: dramatic protective effect

## CC[C@]1(O)C[C@@H]2CN(CCc3c([nH]c4ccccc34)[C@@](C(=O)OC)(c3cc4c(cc3OC)N(C)[C@H]3[C@@](O)(C(=O)OC)[C@H](OC(C)=O)[C@]5(CC)C=CCN6CC[C@]43[C@@H]65)C2)C1 [vinblastine]
[2]
  Lung Injury Score: Edema fluid: 0.033 ± 0.029
  Lung Injury Score: Inflammatory infiltration: 0.167 ± 0.029
  Lung Injury Score: Thickening of alveolar septa: 0.133 ± 0.153
